From patent publication US20210179940A1, “WIDE TEMPERATURE RANGE AND HIGH PHOTOCHEMICAL STABILITY SMECTIC LIQUID CRYSTAL COMPOSITIONS WITH A MONOLAYER SMECTIC A PHASE (SMA1), METHOD OF OBTAINING THEREOF AND DEVICES UTILIZING THEREOF” (WOJSKOWA AKADEMIA TECHNICZNA, priority 2017, published 2021) come the findings set out here.

Data set [1] is described as follows: conductivity of doped smectic A composition 18 in 15 μm cell. The format is physicochemical. The following applies: prepared in fluorobenzene, 100 Hz, RT. An excerpt: The glass cells with a gap of 15 μm filled with the liquid crystal composition were used to measure conductivity and such a parameters of the DS effect as threshold voltage and saturation voltage. […] The orienting layer providing a homeotropic orientation of the molecular director of the smectic composition was obtained using a thin layer of SE1211 (by Nissan Chem.) polyimide, which was deposited on ITO electrodes with a spincoating method, then dried and cured. The testing cells were filled with the liquid crystals composition from the isotropic phase, and they were cooled to the room temperature (RT) and closed.
The components were carefully mixed and then heated to temperature of 90° C. to evaporate the solvent. Then heating was continued under lower pressure (at 0.2 mmHg) for the total removal of the solvent and the composition was carefully mixed by shaking it at the isotropic state. […]

Data set [2] can be described thus: solubility of ionic compounds in fluorobenzene. As to the method:
Fluorobenzene was used as solvent because it is chemically similar to the liquid crystalline composition used here.
The examination was made in the following way: always the same mole amount of a ionic compound (0.00004 mol) was placed in 2 cm^3 of fluorobenzene. The mixture was mixed to dissolve the compound or to obtain equilibrium between the saturated solution and the solid. When a part of the compound was dissolved only, the sample of the saturated solution was taken (0.5 ml). The solvent was evaporated to dryness, the rest was weighted. Knowing the residue amount, the solubility was calculated.

Data set [3] is described as follows: resistivity of fluorobenzene solutions of ionic compounds (bridge method). The class given is physicochemical. The following applies: for resistivity 10 kHz / resistivity 50 Hz: solution in C6H5F, 25° C. As to the method:
The resistivity of the solution was measured by the bridge method using a Wyne Kerr Precision Component Analyzer 6425 and the measuring cells with electrodes of active area of 12.7 mm×12.7 mm. The electrodes were made of ITO. No orienting layers were deposited. The cell formed with two substrates with electrodes mentioned above was filled with the solution by capillary forces. The gap between electrodes was approx. 14.6 μm.

Data set [4] in a line: conductivity of doped smectic A composition 21 in 15 μm cell. The format is physicochemical. The following applies: RT. From the text: The glass cells with a gap of 15 μm filled with the liquid crystal composition were used to measure conductivity and such a parameters of the DS effect as threshold voltage and saturation voltage. Transparent electrodes were formed from indium-tin oxide (ITO) of specific resistivity 100 Ohm/cm^2 and with surface 1.27×1.27 cm^2. The orienting layer providing a homeotropic orientation of the molecular director of the smectic composition was obtained using a thin layer of SE1211 (by Nissan Chem.) polyimide, which was deposited on ITO electrodes with a spincoating method, then dried and cured. The testing cells were filled with the liquid crystals composition from the isotropic phase, and they were cooled to the room temperature (RT) and closed.
In Table 6 the properties of the composition 21 doped with an amidinium salt or potassium complex of a crown ether are compared. The composition 21 has the phase sequence Cr-SmA1-N-Iso and the higher value of dielectric anisotropy than composition 18.

A short description of data set [5]: solubility in organic solvents noted at synthesis. The format is physicochemical. The following applies: solvents named in the value.
[6] abbreviates: composition 18, dopant 6.58 · 10^−3 mol/kg.
Setting [7] is: composition 18, dopant 8.78 · 10^−3 mol/kg.
Setting [8] is: composition 21, dopant 6.58 · 10^−3 mol/kg, f = 100 Hz.

Read-outs that look alike come from different tables or passages of the source.

As for “complex of dibenzo-18-crown-6 ether with potassium bromide [IVb]”, in data set [1] (setting [6]), the “conductivity σ” value is 2.2 · 10^−10 Ohm^−1cm^−1.

“complex of dibenzo-18-crown-6 ether with potassium chlorate (VII) [IVc]”: the “solubility in C6H5F” value in data set [2] (fluorobenzene, 25° C.) was less than 0.002 mol/dcm^3. For the same compound, in data set [3], the “resistivity 10 kHz” value is recorded as 2.9 · 10^7 Ohm · cm and the “resistivity 50 Hz” value is 4.2 · 10^7 Ohm · cm. Besides, the resistivity in data set [3] (solution in fluorobenzene, frequency not stated) is recorded as 4.2·10^7 Ohm·cm. Moreover, the “conductivity σ” value in data set [1] (setting [7]) was 1.5 · 10^−10 Ohm^−1cm^−1.

As to `CCCCCCCCCCCCCCCC[N+](C)(C)C.[Br-]` [I.16b, hexadecyltrimethylammonium bromide, reference compound], in data set [2], the “solubility compared with the ionic compounds of the disclosure” value is “lower at least ten times” and the “solubility in C6H5F” value is listed as 0.00274 mol/dcm^3. Also, in data set [3], the “resistivity 10 kHz” value is on record as 5.2 · 10^7 Ohm · cm and the “resistivity 50 Hz” value is given as 5.0 · 10^7 Ohm · cm.

With `C1COCCOCCOCCOCCOCCO1.CCCCCCCCCCCCc1ccc(S(=O)(=O)[O-])cc1.[K+]` [III.g12, complex of 18-crown-6 ether with potassium 4-dodecylbenzenesulphonate], the “solubility in C6H5F” value in data set [2] (fluorobenzene, 25° C.) is recorded as greater than 0.02 mol/dcm^3. For the same compound, in data set [4] (composition 21, 0.1 wt % dopant + 0.3 wt % stabilizer of formula 29, f = 100 Hz), the “specific conductivity σ” value is listed as 7.0 · 10^−9 Ohm^−1cm^−1.

With `CCCCCCCCCCCCCCCC[N+]1=C2CCCCCN2CCC1` [II.16c, 1-Hexadecyl-1,8-diazabicyclo[5.4.0]undec-7-enium chlorate (VII)], the “solubility in C6H5F” value in data set [2] is reported as >0.02 >0.02 >0.02 >0.02 mol/dcm^3. In addition, in data set [3], the “resistivity 10 kHz” value is 0.84 · 10^6 Ohm · cm and the “resistivity 50 Hz” value is 1.0 · 10^6 Ohm · cm. Also, in data set [5], the “solubility” value was “well soluble in methanol and ethyl acetate”. For the same compound, the “conductivity σ” value in data set [1] (setting [7]) is 4.6 · 10^−10 Ohm^−1cm^−1.

With `N#Cc1c(F)cc([O-])cc1F.[K+].c1ccc2c(c1)OCCOCCOc1ccccc1OCCOCCO2` [IVn, complex of dibenzo-18-crown-6 ether with potassium 3,5-difluoro-4-cyanophenolate], in data set [2] (fluorobenzene, 25° C.), the “solubility in C6H5F” value is listed as greater than 0.02 mol/dcm^3. Also, in data set [3], the “resistivity 10 kHz” value was 4.6 · 10^5 Ohm · cm and the “resistivity 50 Hz” value is reported as 4.2 · 10^5 Ohm · cm. In data set [1] (composition 18, dopant 2.19 · 10^−3 mol/kg), the “conductivity σ” value is recorded as 2.19 · 10^−9 Ohm^−1cm^−1. Further, in data set [1] (setting [7]), the “conductivity σ” value was 8.1 · 10^−9 Ohm^−1cm^−1.

Take `CCCCCCCCc1ccc([O-])cc1.[K+].c1ccc2c(c1)OCCOCCOc1ccccc1OCCOCCO2` [IVh8, complex of dibenzo-18-crown-6 ether with potassium 4-octylphenolate]: the “solubility in C6H5F” value in data set [2] (fluorobenzene, 25° C.) turned out to be 0.0107 mol/dcm^3. Further, the “conductivity σ” value in data set [1] (setting [7]) is given as 1.4 · 10^−10 Ohm^−1cm^−1.

On to `CC[N+]12CCCCCC1=NCCC2.[Br-]` (stereo not shown) [II.2b, 1-ethyl-1,8-diazabicyclo[5.4.0] undec-7-enium bromide], for which the “solubility in C6H5F” value in data set [2] (fluorobenzene, 25° C.) was determined as 0.0077 mol/dcm^3. Also, the “solubility” value in data set [5] is “well soluble in ethanol and ethyl acetate”. The “conductivity σ” value in data set [1] (setting [6]) is 3.0 · 10^−9 Ohm^−1cm^−1.

As for `CCCCCCCCCCCCCCCC[N+]1=C2CCCCCN2CCC1` [II.16d, 1-hexadecyl-1,8-diazabicyclo[5.4.0]undec-7-enium 1,1,1-trifluoromethanesulphonate], the “solubility in C6H5F” value in data set [2] was >0.02 >0.02 >0.02 >0.02 mol/dcm^3.

Take “1-hexadecyl-1,8-diazabicyclo[5,4,0]undec-7-enium 3,5-difluoro-4-cyanophenolate [II.16n]”: the “solubility in C6H5F” value in data set [2] was greater than 0.02 mol/dcm^3. In data set [3], the “resistivity 10 kHz” value is listed as 3.8 · 10^5 Ohm · cm and the “resistivity 50 Hz” value is recorded as 3.9 · 10^5 Ohm · cm. The “resistivity of I.16b, times higher than that of the compound” value in data set [3] (solution in fluorobenzene) worked out at 140 times. Also, the “conductivity σ” value in data set [1] (setting [7]) is 1.8 · 10^−8 Ohm^−1cm^−1.

On to “complex of 18-crown-6 ether with potassium bromide [IIIb]”, for which the “conductivity σ” value in data set [1] (setting [6]) is 1.1 · 10^−9 Ohm^−1cm^−1.

Turning to `[K+].[O-]c1ccc(F)c(F)c1.c1ccc2c(c1)OCCOCCOc1ccccc1OCCOCCO2` [IVk, complex of dibenzo-18-crown-6 ether with potassium 3,4-difluorophenolate], the “solubility in C6H5F” value in data set [2] (fluorobenzene, 25° C.) is recorded as greater than 0.02 mol/dcm^3. For the same compound, in data set [3], the “resistivity 10 kHz” value is reported as 0.95 · 10^6 Ohm · cm and the “resistivity 50 Hz” value is listed as 1.1 · 10^6 Ohm · cm. For the same compound, the “conductivity σ” value in data set [1] (setting [7]) is given as 4.1 · 10^−9 Ohm^−1cm^−1.

As for “1-hexadecyl-1,8-diazabicyclo[5.4.0]undec-7-enium 3,4-difluorophenolate [II.16k]”, the “solubility in C6H5F” value in data set [2] is reported as >0.02 >0.02 >0.02 >0.02 mol/dcm^3.

As for `CCCCCCCCCCCCc1ccc(S(=O)(=O)[O-])cc1.[K+].c1ccc2c(c1)OCCOCCOc1ccccc1OCCOCCO2` [IVg12, Complex of dibenzo-18-crown-6 ether with potassium 4-dodecylbenzenesulphonate], the “solubility in C6H5F” value in data set [2] (fluorobenzene, 25° C.) is given as greater than 0.02 mol/dcm^3. Further, in data set [3], the “resistivity 10 kHz” value is recorded as 4.5 · 10^5 Ohm · cm and the “resistivity 50 Hz” value is listed as 6.0 · 10^5 Ohm · cm. Moreover, the “conductivity σ” value in data set [1] (setting [7]) is 2.7 · 10^−10 Ohm^−1cm^−1. Besides, the “specific conductivity σ” value in data set [4] (setting [8]) is on record as 4.68 · 10^−10 Ohm^−1cm^−1.

Take `C1COCCOCCOCCOCCOCCO1.[K+].[O-]c1ccc(F)c(F)c1` [IIIk, complex of 18-crown-6 ether with potassium 3,4-difluorophenolate]: the “solubility in C6H5F” value in data set [2] (fluorobenzene, 25° C.) is listed as greater than 0.02 mol/dcm^3. In addition, the “conductivity σ” value in data set [1] (setting [6]) is given as 2.7 · 10^−9 Ohm^−1cm^−1; in data set [1] (composition 18, dopant 6.58 · 10^−3 mol/kg, listed as III.k), 2.7·10^−9 Ohm^−1cm^−1.

Take “1-hexadecyl-1,8-diazabicyclo[5.4.0]undec-7-enium 4-dodecylbenzenesulphonate [II.16g12]”: in data set [2] (fluorobenzene, 25° C.), the “solubility in C6H5F” value is on record as greater than 0.02 mol/dcm^3. Further, in data set [3], the “resistivity 10 kHz” value is 1.9 · 10^6 Ohm · cm and the “resistivity 50 Hz” value is on record as 2.1 · 10^6 Ohm · cm. In data set [1] (setting [7]), the “conductivity σ” value is 1.1 · 10^−9 Ohm^−1cm^−1. Moreover, in data set [4] (setting [8]), the “specific conductivity σ” value is 7.42 · 10^−10 Ohm^−1cm^−1.

For “complex of 18-crown-6 ether with sodium dodecyl-1-sulphonate [V.e12]”, the “conductivity σ” value in data set [1] (setting [6]) is given as 3.7 · 10^−10 Ohm^−1cm^−1.

For the compound `CCCCCCCCCCCCCCCC[N+]1=C2CCCCCN2CCC1` [II.16b, 1-hexadecyl-1,8-diazabicyclo[5.4.0]undec-7-enium bromide], the “solubility in C6H5F” value in data set [2] was >0.02 >0.02 >0.02 >0.02 mol/dcm^3. The “solubility” value in data set [5] is “well soluble in methanol and chloroform”.
